According to ChEMBL document CHEMBL1159151, “Synthesis and evaluation of cytotoxic activity of novel arylsulfonylimidazolidinones” (Bioorg Med Chem Lett, 1996):
pIC50: −log10 of the molar value.

How the values were obtained:
[1] = system: SK-MEL-2; assay: In vitro cytotoxic activity against human melanoma SK-MEL-2 cell line; type: functional, cell-based
[2] = system: A549; assay: In vitro cytotoxic activity against human lung carcinoma A549 cell line; type: functional, cell-based

Structure (SMILES)	pIC50 [1]	pIC50 [2]
Cc1ccc(C2CNC(=O)N2S(=O)(=O)c2ccccc2)cc1 (stereo not given)	3.84	3.80
Cc1ccc(C2CN(S(=O)(=O)c3ccc(Cl)cc3)C(=O)N2)cc1 (stereo not given)	3.91	3.80
O=C1NCC(c2ccc(Cl)cc2)N1S(=O)(=O)c1ccc2c(c1)CCC2 (stereo not given)	3.79	< 3.58
O=C1NCC(c2ccc(Br)cc2)N1S(=O)(=O)c1ccc2c(c1)CCC2 (stereo not given)	3.92	< 3.62
Cc1ccc(C2CN(S(=O)(=O)c3ccccc3)C(=O)N2)cc1 (stereo not given)	< 3.50	< 3.50
O=C1NC(c2ccccc2)CN1S(=O)(=O)c1ccc2c(c1)CCC2 (stereo not given)	–	6.04
Cc1ccc(S(=O)(=O)N2C(=O)NCC2c2ccc(Br)cc2)cc1 (stereo not given)	4.10	4.17
Cc1ccc(C2CNC(=O)N2S(=O)(=O)c2ccc(C)cc2)cc1 (stereo not given)	3.63	< 3.52
Cc1ccc(C2CNC(=O)N2S(=O)(=O)c2ccc(Cl)cc2)cc1 (stereo not given)	3.59	3.58
O=C1NC(c2ccccc2)CN1S(=O)(=O)c1ccccc1 (stereo not given)	3.93	3.84
O=C1NCC(c2ccccc2)N1S(=O)(=O)c1ccc2c(c1)CCC2 (stereo not given)	4.41	4.23
Cc1ccc(C2CNC(=O)N2S(=O)(=O)c2ccc3c(c2)CCC3)cc1 (stereo not given)	4.05	4.04
O=C1NCC(c2ccc(Br)cc2)N1S(=O)(=O)c1ccc(Cl)cc1 (stereo not given)	3.97	4.08
Cc1ccc(C2CN(S(=O)(=O)c3ccc4c(c3)CCC4)C(=O)N2)cc1 (stereo not given)	4.14	4.00
O=C(Nc1ccc(Cl)cc1)NS(=O)(=O)c1ccc2c(c1)CCC2 [SULOFENUR]	4.89	4.95
Cc1ccc(S(=O)(=O)N2CC(c3ccc(Br)cc3)NC2=O)cc1 (stereo not given)	< 3.60	< 3.60
O=C1NC(c2ccc(Cl)cc2)CN1S(=O)(=O)c1ccc2c(c1)CCC2 (stereo not given)	4.19	4.06
O=C1NC(c2ccccc2)CN1S(=O)(=O)c1ccc(Cl)cc1 (stereo not given)	5.84	5.02
O=C1NC(c2ccc(Br)cc2)CN1S(=O)(=O)c1ccc2c(c1)CCC2 (stereo not given)	4.49	4.47
Cc1ccc(S(=O)(=O)N2CC(c3ccccc3)NC2=O)cc1 (stereo not given)	5.60	4.90
Cc1ccc(S(=O)(=O)N2C(=O)NCC2c2ccccc2)cc1 (stereo not given)	< 3.50	< 3.50
O=C1NC(c2ccc(Br)cc2)CN1S(=O)(=O)c1ccc(Cl)cc1 (stereo not given)	3.95	3.79
Cc1ccc(C2CN(S(=O)(=O)c3ccc(C)cc3)C(=O)N2)cc1 (stereo not given)	< 3.52	< 3.52
